Data reported in PubChem BioAssay (NCI).
“And” between values parts separate entries of the source, which are not always exact repeats. Equal entries are not always repeated.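 In this assay, cells in 96-well plates receive the compound at five concentrations for 48 hours. Endpoints are linearly interpolated between the surrounding concentrations. GI50 = concentration required for 50% inhibition of growth. Definition used: TGI = concentration required for complete inhibition of growth.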

How the values were obtained:
Assay in all cases: inhibition of tumour cell growth, NCI panel, 48 h
HCC-2998 colon = tested on: HCC-2998 colon
HOP-92 NSCLC = tested on: HOP-92 NSCLC
HS 578T breast = tested on: HS 578T breast
RPMI-8226 leukemia = tested on: RPMI-8226 leukemia
SF-268 CNS = tested on: SF-268 CNS
SK-MEL-5 melanoma = tested on: SK-MEL-5 melanoma
SNB-75 CNS = tested on: SNB-75 CNS
SR leukemia = tested on: SR leukemia
U251 CNS = tested on: U251 CNS
UO-31 renal = tested on: UO-31 renal

Compound	GI50 (HCC-2998 colon)	TGI (HCC-2998 colon)	GI50 (HOP-92 NSCLC)	TGI (HOP-92 NSCLC)	GI50 (HS 578T breast)	TGI (HS 578T breast)	GI50 (RPMI-8226 leukemia)	TGI (RPMI-8226 leukemia) [µM]	GI50 (SF-268 CNS)	TGI (SF-268 CNS)	GI50 (SK-MEL-5 melanoma)	TGI (SK-MEL-5 melanoma)	GI50 (SNB-75 CNS)	TGI (SNB-75 CNS)	GI50 (SR leukemia)	TGI (SR leukemia) [µM]	GI50 (U251 CNS)	TGI (U251 CNS)	GI50 (UO-31 renal)	TGI (UO-31 renal)
CCCCCCCCN(CCCCCCCC)CC(O)c1cc(-c2ccccc2)nc2ccc(OC)cc12 (configuration not stated)	> 100 µM	> 100 µM	57.5 µM	> 100 µM	> 100 µM	> 100 µM	10.3 µM	44.3	28.7 µM	> 100 µM	34.4 µM	> 100 µM	> 100 µM	> 100 µM	10.1 µM	97.3	27.8 µM	96.2 µM	34.4 µM	> 100 µM
O=C1/C=C/[C@@H](O)[C@@H]2C[C@@H](O)C[C@H]2/C=C/CCC[C@H](CCO)O1	0.227 µM	–	0.233 µM	0.93 µM	0.0519 µM	> 100 µM	0.33 µM	6.34	0.0782 µM	> 73 µM	0.0201 µM	0.0423 µM	0.0994 µM	> 100 µM	0.297 µM	–	0.382 µM	> 100 µM	0.22 µM	> 100 µM
COc1cc2c(cc1OC)C(Cl)C(c1ccc(Br)cc1)=C2Cl (configuration not stated)	–	27.4 µM	–	36.2 µM	–	59.3 µM	–	15.2	–	29.4 µM	–	28.6 µM	–	27.7 µM	–	> 100	–	24.8 µM	–	17.1 µM
Cc1cc(I)cc(CN(C)CCCN2CCC(C)CC2)c1O	12.4 µM	25.4 µM	6.62 µM	21.5 µM	12.1 µM	26.2 µM	12.6 µM	32	14.6 µM	27.7 µM	4.98 µM	17.2 µM	11 µM	23 µM	11.5 µM	32.2	15.2 µM	29.8 µM	11.4 µM	24.8 µM
CC(C)[C@@H](C(=O)O[C@@H]1/C=C/C(=O)O[C@@H](C)CCC/C=C/[C@@H]2C[C@H](O)C[C@H]21)N(C)C	20 µM	55.1 µM	0.0403 µM	0.0954 µM	6.4 µM	50.5 µM	3.93 µM	27.1	7.33 µM	> 45 µM	2.25 µM	5.37 µM	2.89 µM	27.7 µM	14.9 µM	38.1	30.2 µM	> 100 µM	23.1 µM	> 100 µM
CCC(=O)NC1=C(Cl)C(=O)C(NC(=O)CC)=C(Cl)C1=O	17.4 µM	32.1 µM	9.98 µM	28.8 µM	26.6 µM	69.7 µM	8.98 µM	30.4	19.7 µM	34.2 µM	17.6 µM	31.7 µM	13.7 µM	18.1 µM	8.13 µM	> 23.2	> 41.9 µM	> 56 µM	5.97 µM	11.4 µM
CC1Cc2c(Cl)ncnc2N(C)c2ccccc21 (configuration not stated)	3.01 µM	10.6 µM	2.34 µM	7.17 µM	1.36 µM	47.3 µM	3.54 µM	16.4	2.77 µM	91.6 µM	1.85 µM	3.62 µM	0.352 µM	33.5 µM	3.33 µM	32.6	3.92 µM	37.9 µM	3.37 µM	89.1 µM
CC1=CC2(C)/C=C(C)/C=C\CC(O)/C=C3/C=CC(=C4C(=O)OC2(CC1C)C4=O)OC3 (configuration not stated)	5.78 µM	22.2 µM	0.524 µM	1.54 µM	2.25 µM	6.97 µM	0.328 µM	–	2.09 µM	4.75 µM	3.07 µM	11.6 µM	2.84 µM	17.3 µM	1.59 µM	> 100	1.64 µM	3.58 µM	1.46 µM	3.06 µM
O=C(Nc1cccc([N+](=O)[O-])c1)c1cccc(C(=O)Nc2cccc([N+](=O)[O-])c2)c1	> 100 µM	> 100 µM	8.85 µM	60.7 µM	7.5 µM	> 30.7 µM	> 100 µM	> 100	5.22 µM	> 100 µM	> 100 µM	> 100 µM	8.42 µM	72.2 µM	> 100 µM	> 100	7.15 µM	> 68.2 µM	> 100 µM	> 100 µM
O=C(Nc1nc2c(C(F)(F)F)cccc2s1)c1cc(Cl)ccc1O	0.451 µM	14.1 µM	0.188 µM	0.705 µM	0.268 µM	26.3 µM	0.203 µM	0.52	0.422 µM	> 100 µM	0.193 µM	0.446 µM	0.262 µM	41.6 µM	0.353 µM	3.28	0.312 µM	42.6 µM	0.265 µM	11.7 µM
Cc1ccc2ccccc2c1CSc1nc(N)nc2c1ncn2CC(C)C	–	> 71.6 µM	–	> 100 µM	–	> 100 µM	–	> 73.3	–	> 100 µM	–	20.3 µM	–	> 100 µM	–	50.6	–	> 100 µM	–	13.2 µM
Oc1c(C(Nc2ccccn2)c2ccccc2)ccc2cccnc12 (configuration not stated)	–	> 100 µM	–	9.97 µM	–	> 87.9 µM	–	29.3	–	25.3 µM	–	15.5 µM	–	> 60.9 µM	–	> 22.6	–	12.3 µM	–	41.4 µM
c1ccc2c(N=NSc3ncnc4nc[nH]c34)c3ccccc3nc2c1	1.49 µM	3.77 µM	1.79 µM	4.77 µM	2.6 µM	7.21 µM	2.42 µM	6.82	1.8 µM	6.53 µM	1.16 µM	2.39 µM	1.35 µM	2.95 µM	1.06 µM	8.17	1.12 µM	10.9 µM	1.09 µM	3.99 µM
Cn1nc(C(F)(F)F)cc1-c1cc(Cl)c(OCc2ccc(Cl)cc2)c(-c2ccc(Cl)c(C(F)(F)F)c2)c1O	1.4 µM	5.45 µM	0.554 µM	2.1 µM	0.975 µM	2.92 µM	0.712 µM	2.55	1.24 µM	5.47 µM	0.777 µM	1.74 µM	0.984 µM	2.68 µM	0.651 µM	2.11	1.05 µM	5.13 µM	1.12 µM	3.51 µM
CCC[CH2][Sn]1([CH2]CCC)[O]C(=O)c2cccc([N+](=O)[O-])c2C(=O)[O]1	1.11 µM	2.45 µM	0.228 µM	1.66 µM	0.907 µM	3.73 µM	0.186 µM	0.596	0.431 µM	1.65 µM	0.919 µM	2.22 µM	0.324 µM	1.64 µM	0.28 µM	1.97	0.633 µM	1.94 µM	0.329 µM	1.41 µM
CC1=CC(C)=N/C(=N/S(=O)(=O)c2cc(C)c(Cl)cc2SCc2ccccc2)NN1	> 100 µM	> 100 µM	17.9 µM	62.8 µM	> 100 µM	> 100 µM	> 100 µM	> 100	78.1 µM	> 100 µM	> 100 µM	> 100 µM	32.5 µM	> 100 µM	> 100 µM	> 100	82.3 µM	> 100 µM	> 100 µM	> 100 µM
Cc1nnc(N/N=C/c2ccc([N+](=O)[O-])o2)[nH]c1=O	1.14 µM	> 100 µM	0.228 µM	1.76 µM	0.425 µM	40.8 µM	2.95 µM	> 32	0.521 µM	> 57.9 µM	0.84 µM	3.3 µM	1.36 µM	67.5 µM	1.1 µM	> 100	0.289 µM	> 100 µM	0.931 µM	10.8 µM
CCN(CC)CCOc1nc2ccccc2c2c1-c1ccc(OC)cc1C2=O	1.26 µM	3.21 µM	2.09 µM	> 28.6 µM	1.19 µM	5.78 µM	0.449 µM	2.15	0.445 µM	2.05 µM	1.52 µM	3.09 µM	1.44 µM	5.19 µM	0.316 µM	1.07	0.446 µM	2.3 µM	0.13 µM	1.41 µM
Cc1cc(OCc2ccc(C(F)(F)F)cc2)c2c(c1)C(=O)C=C(NCCN1CCCC1)C2=O	1.87 µM	3.46 µM	1.96 µM	7.38 µM	2.02 µM	5.23 µM	1.87 µM	4.36	1.97 µM	4.24 µM	1.53 µM	2.88 µM	1.49 µM	2.89 µM	2.6 µM	6.97	1.72 µM	3.45 µM	2.19 µM	4.93 µM
Cc1cc(N(CCC#N)S(=O)(=O)c2ccccc2)ccc1C=Nc1ccc(C(=O)O)cc1	–	27.5 µM	–	> 100 µM	–	> 100 µM	–	> 21.2	–	> 60.7 µM	–	24.3 µM	–	29.1 µM	–	> 40.9	–	38.2 µM	–	21.8 µM
COc1cc(OC)c(/C=C/C(=O)c2c(OC)cc(OC)cc2OC)c(OC)c1	1.24 µM	10 µM	0.534 µM	6.5 µM	1.39 µM	6.37 µM	0.566 µM	3.03	1.84 µM	6.96 µM	0.818 µM	11.2 µM	1.83 µM	> 26.2 µM	0.206 µM	0.761	1.11 µM	9.43 µM	2.23 µM	> 100 µM
COc1cc2c(cc1OCC(=O)Nc1ccc(Cl)cc1C(=O)c1ccccc1Cl)N=CC1CCCN1C2=O (configuration not stated)	13.4 µM	34.3 µM	10.9 µM	28.8 µM	7.17 µM	24 µM	20.3 µM	98.8	12.9 µM	33 µM	10 µM	21.9 µM	14.2 µM	28.8 µM	3.7 µM	28	6.36 µM	19.3 µM	7.97 µM	20.5 µM
COc1ccc(C(=O)/C=C/c2ccc(OCc3cccc(C(F)(F)F)c3)c(OC)c2)cc1OC	131 µM	> 1000 µM	142 µM	> 1000 µM	92.4 µM	> 1000 µM	25.3 µM	94	76.6 µM	> 1000 µM	38.4 µM	301 µM	31.6 µM	> 1000 µM	33.8 µM	> 1000	61.4 µM	> 1000 µM	47.3 µM	> 1000 µM
O=C1OC(OC/C(Br)=C(\Br)COC2OC(=O)C(Cl)=C2Cl)C(Cl)=C1Cl (configuration not stated)	–	33.7 µM	–	10.7 µM	–	31.7 µM	–	3.94	–	26.8 µM	–	22.3 µM	–	39.4 µM	–	2.16	–	19 µM	–	8.12 µM
Cc1c(C(=O)Nc2ccc(N3C[C@@H](C)O[C@@H](C)C3)nc2)cccc1-c1ccc(OC(F)(F)F)cc1	12.4 µM and 15.5 µM	36.1 µM and 42.3 µM	2.51 µM and 1.79 µM	13.7 µM and 13 µM	9.09 µM and 14.1 µM	49.3 µM and 43.8 µM	5.7 µM and 12 µM	> 100	7.22 µM and 5.25 µM	28.9 µM and 25.9 µM	3.83 µM and 5.23 µM	20.8 µM and 38.3 µM	10.1 µM and 12.9 µM	25.8 µM and 32.5 µM	28.2 µM and > 100 µM	> 100	8.6 µM and 12 µM	28 µM and 38.4 µM	3.52 µM and 8.63 µM	19 µM and 27 µM
COC(=O)[C@]1(C)CCC[C@@]2(C)C3=C(CC[C@H]12)C[C@@H](CC(OC(C)=O)OC(C)=O)[C@@H](C)C3	9.32 µM	16.3 µM	9.95 µM	19.9 µM	10.9 µM	23 µM	5.23 µM	27.7	7.85 µM	16.9 µM	8.4 µM	15.6 µM	14.1 µM	30.5 µM	11.2 µM	> 50	13.4 µM	> 28.9 µM	10.6 µM	24.8 µM
